The structures appear in SMILES notation. Like-named read-outs stand apart in the source and are kept apart here.

The subject of test [1] is Jurkat, human leukemic T cell line. Description: Anti-proliferation MTT / CCK-8 assay. In kind it is cell-based. The settings on record: Homo sapiens, Jurkat, 72 h. The protocol:
These cells were purchased from the National Collection of Authenticated Cell Cultures (Shanghai, China).
(§1) The concentration of the cell suspension was adjusted to the appropriate concentration with fresh medium (the number of cells was about 30–40% of the bottom area of the well plate). 150 μL (about 1 × 10^4 cells) of prepared cell suspension containing different concentrations of NBU-2 were added to a 96-microtiter plate, and 3 replicate wells were set up for each concentration. If the cells were adherent, the cells were first allowed to grow overnight in 96 microtiter plates until the cells were adherent, and then the old medium was replaced with the drug-containing medium. The plates were incubated in a 5% CO2 cell incubator at 37 °C for 72 h. Then, 15 μL of MTT solution was added to each well, 100 μL of 10% SDS solution (pH = 2) was added after 4 h, and the plate was incubated at 37 °C with 5% CO2 overnight to fully dissolve the crystals.
(§2) The cells (about 1 × 10^4 cells) were treated with different concentrations of NBU-2 and DMSO control for different times (24 h, 48 h, 72 h), with 3 replicate wells for each concentration. Incubate at 37 °C in a 5% CO2 cell culture incubator. After a predetermined time, 10 μL of CCK-8 was added to each well and incubated for 2 h. The absorbance was measured at the excitation wavelength of 450 nm.

Test [2] deals with HL-60, human leukemic cell line. The experiment in a line: Anti-proliferation MTT / CCK-8 assay. In kind it is cell-based. The settings on record: HL-60, read-out: IC50 proliferation HL-60, heading: IC50 proliferation HL-60, 72 h, mean ± SEM of three independent assays.
Description: (§3) K562, human erythroleukemia line; HL-60, human leukemic cell line; Jurkat, human leukemic T cell line; CCRF-CEM, human leukemic lymphoblasts; U937, human histiocytic lymphoma; HCT-116, human colorectal cancer cell line; A549, human lung cancer cell line; Hep G2, human hepatoma cell lines; MDA-MB-231, MCF-7, human breast cancer cell line; 4T1, mouse breast cancer cell line; PC12, pheochromocytoma of the rat adrenal medulla; HUVEC, human umbilical vein endothelial cells. These cells were purchased from the National Collection of Authenticated Cell Cultures (Shanghai, China).
as §1, with “crystals. Finally, the absorbance value of each well was measured at 570 and 655 nm.” for “crystals.”
as §2

For test [3], the system named is Hep G2, human hepatoma cell lines. Description: Anti-proliferation MTT / CCK-8 assay. In kind it is cell-based. Particulars: HepG2, read-out: IC50 proliferation HepG2, heading: IC50 proliferation HepG2, 72 h, mean ± SEM of three independent assays.
Description: as §3
as §1, with “crystals. Finally, the absorbance value of each well was measured at 570 and 655 nm.” for “crystals.”
as §2
(Tetrazolium dyes change colour on reduction, which living cells bring about.)

In test [4] the test system is U937, human histiocytic lymphoma. Description: Anti-proliferation MTT / CCK-8 assay. It counts as cell-based. The settings on record: U-937, read-out: IC50 proliferation U937, heading: IC50 proliferation U937, 72 h, mean ± SEM of three independent assays.
Description: as §3
as §1, with “crystals. Finally, the absorbance value of each well was measured at 570 and 655 nm.” for “crystals.”
as §2

Test [5] relates to K562, human erythroleukemia line. The experiment in a line: Anti-proliferation MTT / CCK-8 assay. It counts as cell-based. The settings on record: K562, read-out: IC50 proliferation K562, heading: IC50 proliferation K562, 72 h, mean ± SEM of three independent assays.
Description: as §3
as §1, with “crystals. Finally, the absorbance value of each well was measured at 570 and 655 nm.” for “crystals.”
as §2

For test [6], the system named is 4T1, mouse breast cancer cell line. The experiment in a line: Anti-proliferation MTT / CCK-8 assay. In kind it is cell-based. The settings on record: 72 h.
Description: as §3
as §1, with “crystals. Finally, the absorbance value of each well was measured at 570 and 655 nm.” for “crystals.”
as §2

Test [7] concerns CCRF-CEM, human leukemic lymphoblasts. The experiment in a line: Anti-proliferation MTT / CCK-8 assay. In kind it is cell-based. Particulars: read-out: IC50 proliferation CCRF-CEM, heading: IC50 proliferation CCRF-CEM, 72 h, mean ± SEM of three independent assays.
Description: as §3
as §1, with “crystals. Finally, the absorbance value of each well was measured at 570 and 655 nm.” for “crystals.”
as §2

Test [8] concerns PC12, pheochromocytoma of the rat adrenal medulla. The experiment in a line: Anti-proliferation MTT / CCK-8 assay. It counts as cell-based. Particulars: PC-12, 72 h.
Description: as §3
as §1, with “crystals. Finally, the absorbance value of each well was measured at 570 and 655 nm.” for “crystals.”
as §2

Test [9] deals with MDA-MB-231, human breast cancer cell line. The experiment in a line: Anti-proliferation MTT / CCK-8 assay. In kind it is cell-based. The settings on record: MDA-MB-231, read-out: IC50 proliferation MDA-MB-231, heading: IC50 proliferation MDA-MB-231, 72 h, mean ± SEM of three independent assays.
Description: as §3
as §1, with “crystals. Finally, the absorbance value of each well was measured at 570 and 655 nm.” for “crystals.”
as §2

For test [10], the system named is A549, human lung cancer cell line. The experiment in a line: Anti-proliferation MTT / CCK-8 assay. It counts as cell-based. Particulars: A549, read-out: IC50 proliferation A549, heading: IC50 proliferation A549, 72 h, mean ± SEM of three independent assays.
Description: as §3
as §1, with “crystals. Finally, the absorbance value of each well was measured at 570 and 655 nm.” for “crystals.”
as §2

Test [11] deals with HCT-116, human colorectal cancer cell line. Description: Anti-proliferation MTT / CCK-8 assay. The settings on record: HCT-116, read-out: IC50 proliferation HCT-116, heading: IC50 proliferation HCT-116, 72 h, mean ± SEM of three independent assays. It counts as cell-based.
Description: as §3
as §1, with “crystals. Finally, the absorbance value of each well was measured at 570 and 655 nm.” for “crystals.”
as §2

The target of the next test is HDAC1 (Homo sapiens, UniProt Q13547). The experiment in a line: In vitro HDAC enzymatic inhibition assay (HDAC kit, fluorescence).
Chain of HDAC1 (Q13547 whole entry): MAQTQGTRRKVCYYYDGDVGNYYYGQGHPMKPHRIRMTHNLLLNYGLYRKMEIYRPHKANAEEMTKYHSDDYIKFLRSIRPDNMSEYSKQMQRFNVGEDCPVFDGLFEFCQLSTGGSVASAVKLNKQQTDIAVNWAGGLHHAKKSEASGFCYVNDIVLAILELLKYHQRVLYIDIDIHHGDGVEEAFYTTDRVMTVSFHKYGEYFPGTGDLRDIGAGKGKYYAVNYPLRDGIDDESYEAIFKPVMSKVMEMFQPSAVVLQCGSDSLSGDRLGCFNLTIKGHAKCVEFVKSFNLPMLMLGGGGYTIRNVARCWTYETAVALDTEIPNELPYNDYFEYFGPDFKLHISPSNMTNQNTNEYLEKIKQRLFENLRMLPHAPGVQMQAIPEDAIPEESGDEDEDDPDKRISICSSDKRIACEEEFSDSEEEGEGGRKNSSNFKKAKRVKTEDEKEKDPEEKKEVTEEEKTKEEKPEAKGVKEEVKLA
For the next test, the target named is T1, HDAC6 (Homo sapiens, UniProt Q9UBN7).
T1 sequence (Q9UBN7 1-1215): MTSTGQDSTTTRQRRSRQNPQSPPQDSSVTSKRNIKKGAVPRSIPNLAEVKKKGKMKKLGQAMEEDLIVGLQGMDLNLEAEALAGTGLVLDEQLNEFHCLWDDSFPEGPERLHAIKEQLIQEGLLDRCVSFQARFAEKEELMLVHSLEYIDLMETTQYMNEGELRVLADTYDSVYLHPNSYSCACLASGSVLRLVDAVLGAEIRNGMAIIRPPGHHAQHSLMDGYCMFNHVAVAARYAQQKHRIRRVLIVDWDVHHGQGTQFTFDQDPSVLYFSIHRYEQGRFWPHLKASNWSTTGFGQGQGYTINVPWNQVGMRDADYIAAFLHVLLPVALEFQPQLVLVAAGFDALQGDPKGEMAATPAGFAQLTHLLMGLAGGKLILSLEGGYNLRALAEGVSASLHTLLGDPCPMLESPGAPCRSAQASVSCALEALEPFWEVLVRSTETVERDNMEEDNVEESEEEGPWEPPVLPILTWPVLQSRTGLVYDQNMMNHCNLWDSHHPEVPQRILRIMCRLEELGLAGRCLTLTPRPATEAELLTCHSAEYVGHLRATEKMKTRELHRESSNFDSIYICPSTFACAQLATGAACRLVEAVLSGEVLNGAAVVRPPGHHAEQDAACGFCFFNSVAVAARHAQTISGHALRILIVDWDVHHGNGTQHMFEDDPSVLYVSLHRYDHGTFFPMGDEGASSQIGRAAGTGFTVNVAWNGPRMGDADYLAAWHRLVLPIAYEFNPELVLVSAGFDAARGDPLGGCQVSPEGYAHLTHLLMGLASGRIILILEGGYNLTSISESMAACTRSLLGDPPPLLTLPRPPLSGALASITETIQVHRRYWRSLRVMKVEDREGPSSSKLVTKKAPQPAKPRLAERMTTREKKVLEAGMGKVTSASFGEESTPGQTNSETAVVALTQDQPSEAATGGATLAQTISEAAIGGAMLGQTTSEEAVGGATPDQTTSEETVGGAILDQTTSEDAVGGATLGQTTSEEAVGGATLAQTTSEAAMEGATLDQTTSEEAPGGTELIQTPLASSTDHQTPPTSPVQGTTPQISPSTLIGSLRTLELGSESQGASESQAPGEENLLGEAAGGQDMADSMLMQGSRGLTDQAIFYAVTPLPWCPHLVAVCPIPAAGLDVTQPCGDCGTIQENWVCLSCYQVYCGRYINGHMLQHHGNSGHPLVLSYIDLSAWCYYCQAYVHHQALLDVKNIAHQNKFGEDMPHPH
The description is as above.

Description for HDAC1: (§4) Enzymatic assays were performed by Shanghai ChemPartner according to the HDAC kit protocol. […] Fluorescence was recorded at 355 nm excitation and 460 nm emission on a Synergy MX reader (PerkinElmer Life Sciences, Boston, MA, USA). IC50 values were derived from dose–response curves.
Description for HDAC6: as §4

With `Nc1cc(F)ccc1NC(=O)c1ccc(CNC(=O)/C=C/c2cccnc2)cc1` [Chidamide, reference compound], the IC50 in [1] (read-out: IC50 against Jurkat cells) is 2.23 µM; in test [1] (read-out: IC50 proliferation Jurkat, heading: IC50 proliferation Jurkat, mean ± SEM of three independent assays) it was 2.23 ± 0.22 µM; in [2] it was 0.86 ± 0.07 µM; in [3], 0.5 ± 0.02 µM; in test [4], 1.31 ± 0.38 µM; in test [5], 1.65 ± 0.64 µM. Besides, the IC50 was over 0.05 µM in test [6]; 1.66 ± 0.34 µM in test [7]; over 0.05 µM in test [8]; 9.75 ± 1.78 µM in test [9]; over 50 µM in test [10]; 3.86 ± 1.09 µM in test [11].

Consider `O=C(NO)c1ccc(CNc2ccnc3ccccc23)cc1` [NBU-1, N-hydroxy-4-((quinolin-4-ylamino)methyl)benzamide], for which the IC50 against HDAC1 came out at 0.242 ± 0.015 µM; on HDAC6, 0.114 ± 0.028 µM.
